Measurements reported in patent US20100120050A1, “Biomarkers For Assessing Altherosclerotic Potential” (ENTELOS, INC., priority 2008, published 2010).
Where two headings read alike, the source gives them in different places.

Tested on: hepatic genes (liver)
Protocol: While the molecular target for PPARγ is not in the liver, it represents the effects of changes in metabolism of the whole animal, which impact liver lipoprotein production and clearance.
Male Sprague-Dawley (Crl:CD® (SD)(IGS)BR) rats (Charles River Laboratories, Portage, Mich.), weight matched, 7 to 8 weeks of age, were housed individually in hanging, stainless steel, wire-bottom cages in a temperature (66-77° F.), light (12-hour dark/light cycle) and humidity (30-70%) controlled room. Water and rodent diet were available ad libitum throughout the 5 day acclimatization period and during the 5 day treatment period. Housing and treatment of the animals were in accordance with regulations outlined in the USDA Animal Welfare Act (9 CFR Parts 1, 2 and 3).
Rats (three per group) were dosed daily at either a low or high dose. […] Animals were necropsied on days 0.25, 1, 3, and 5. Up to 13 tissues (e.g., liver, kidney, heart, bone marrow, blood, spleen, brain, intestine, glandular and nonglandular stomach, lung, muscle, and gonads) were collected for histopathological evaluation and microarray expression profiling on the Affymetrix Rat Whole Genome RG230 v2 platform. In addition, a clinical pathology panel consisting of 37 clinical chemistry and hematology parameters was generated from blood samples collected on days 3 and 5.
Gene expression profiling, data processing and quality control were performed using protocols recommended by. Briefly, liver samples from 3 rats were chosen at random from each treatment and control group for each timepoint for expression profile analysis on the Affymetrix Rat Whole Genome RG230 v2 microarray (Affymetrix, Santa Clara, Calif.). Log transformed signal data for all probes were array-wise normalized using the Affymetrix MASS algorithm. Expression log ratios of base 10 (log(10) ratios) were computed as the difference between the logs of the averaged normalized experimental signals and the averaged normalized time-matched vehicle control signals for each gene.

CCc1ccc(CCOc2ccc(CC3SC(=O)NC3=O)cc2)nc1 (stereo not drawn) [pioglitazone]
Average Log (10) Ratio: L-3-hydroxyacyl-Coenzyme A dehydrogenase, short chain (rat liver, probe AA891362, Rn.92789, oral gavage, experiments of Table 3): 0.375 | Average Log (10) Ratio: acetyl-coenzyme A acetyltransferase 1 (rat liver, probe AA899304, Rn.4054, oral gavage, experiments of Table 3): 0.171 | Average Log (10) Ratio: transferrin (rat liver, probe AA945548, Rn.91296, oral gavage, experiments of Table 3): −0.222 | Average Log (10) Ratio: sterol regulatory element binding factor 1 (rat liver, probe AF286470, Rn.801, oral gavage, experiments of Table 3): −0.118 | Average Log (10) Ratio: CCAAT/enhancer binding protein (C/EBP), delta (rat liver, probe AI176576, Rn.6975, oral gavage, experiments of Table 3): −0.035 | Average Log (10) Ratio: fatty acid synthase (rat liver, probe AI179334, Rn.9486, oral gavage, experiments of Table 3): −0.411 | Average Log (10) Ratio: peroxisome proliferator activated receptor alpha (rat liver, probe AI385341, Rn.9753, oral gavage, experiments of Table 3): 0.247 | Average Log (10) Ratio: perilipin (rat liver, probe AI406700, Rn.9737, oral gavage, experiments of Table 3): −0.187 | Average Log (10) Ratio: monoglyceride lipase (rat liver, probe AI713204, Rn.40396, oral gavage, experiments of Table 3): −0.118 | Average Log (10) Ratio: phosphatidylinositol 3-kinase, C2 domain containing, gamma polypeptide (rat liver, probe AW526669, Rn.169550, oral gavage, experiments of Table 3): −0.240 | Average Log (10) Ratio: monoglyceride lipase (rat liver, probe AY081195, Rn.40396, oral gavage, experiments of Table 3): −0.131 | Average Log (10) Ratio: mitogen-activated protein kinase 8 (rat liver, probe BE105603, Rn.4090, oral gavage, experiments of Table 3): 0.332 | Average Log (10) Ratio: ELOVL family member 6, elongation of long chain fatty acids (yeast) (rat liver, probe BF396857, Rn.46942, oral gavage, experiments of Table 3): −0.225 | Average Log (10) Ratio: sterol regulatory element binding factor 1 (rat liver, probe BF398848, Rn.801, oral gavage, experiments of Table 3): −0.092 | Average Log (10) Ratio: RIKEN cDNA 1500016L11 (DBSS) (rat liver, probe BF407188, Rn.15135, oral gavage, experiments of Table 3): −0.149 | Average Log (10) Ratio: monoglyceride lipase (rat liver, probe BG372713, Rn.40396, oral gavage, experiments of Table 3): −0.110 | Average Log (10) Ratio: Pyruvate carboxylase (rat liver, probe BG376902, Rn.11094, oral gavage, experiments of Table 3): 0.300 | Average Log (10) Ratio: acetyl CoA transferase-like (DBSS) (rat liver, probe BG377636, Rn.98393, oral gavage, experiments of Table 3): 0.071 | Average Log (10) Ratio: phospholipid transfer protein (DBSS) (rat liver, probe BI278687, Rn.117434, oral gavage, experiments of Table 3): −0.045 | Average Log (10) Ratio: guanine nucleotide binding protein, alpha stimulating, olfactory type (rat liver, probe BI281656, Rn.39132, oral gavage, experiments of Table 3): −0.386 | Average Log (10) Ratio: acetyl-Coenzyme A acyltransferase 2 (mitochondrial 3-oxoacyl-Coenzyme A thiolase) (rat liver, probe BI282488, Rn.3786, oral gavage, experiments of Table 3): 0.046 | Average Log (10) Ratio: glycerol-3-phosphate acyltransferase, mitochondrial (rat liver, probe BI288209, Rn.44456, oral gavage, experiments of Table 3): −0.319 | Average Log (10) Ratio: elongation of very long chain fatty acids (FEN1/Elo2, SUR4/Elo3, yeast)-like 3 (DBSS) (rat liver, probe BI292438, Rn.79322, oral gavage, experiments of Table 3): 0.334 | Average Log (10) Ratio: NCI_CGAP_Emb2 cDNA clone IMAGE: 4176354 (rat liver, probe BI850137, Rn.83595, oral gavage, experiments of Table 3): 0.315 | Average Log (10) Ratio: pyruvate dehydrogenase kinase, isoenzyme 3 (mapped) (rat liver, probe BM389330, Rn.18101, oral gavage, experiments of Table 3): −0.142 | Average Log (10) Ratio: 3-hydroxy-3-methylglutaryl-Coenzyme A reductase (rat liver, probe BM390399, Rn.9437, oral gavage, experiments of Table 3): −0.018 | Average Log (10) Ratio: sulfotransferase family 2A, dehydroepiandrosterone (DHEA)-preferring, member 1 (rat liver, probe D14989, Rn.91378, oral gavage, experiments of Table 3): 0.112 | Average Log (10) Ratio: apolipoprotein E (rat liver, probe J02582, Rn.32351, oral gavage, experiments of Table 3): 0.410 | Average Log (10) Ratio: stearoyl-Coenzyme A desaturase 1 (rat liver, probe J02585, Rn.1023, oral gavage, experiments of Table 3): 0.056 | Average Log (10) Ratio: apolipoprotein B (rat liver, probe M14952, Rn.33815, oral gavage, experiments of Table 3): −0.303 | Average Log (10) Ratio: NCI_CGAP_Emb2 cDNA clone IMAGE: 4176354 (rat liver, probe M15114, Rn.83595, oral gavage, experiments of Table 3): 0.052 | Average Log (10) Ratio: malic enzyme 1 (rat liver, probe M30596, Rn.161920, oral gavage, experiments of Table 3): −0.083 | Average Log (10) Ratio: glucokinase (rat liver, probe NM_012565, Rn.10447, oral gavage, experiments of Table 3): −0.220 | Average Log (10) Ratio: serine (or cysteine) peptidase inhibitor, clade E, member 1 (rat liver, probe NM_012620, Rn.29367, oral gavage, experiments of Table 3): 0.049 | Average Log (10) Ratio: adrenergic receptor, beta 1 (rat liver, probe NM_012701, Rn.87064, oral gavage, experiments of Table 3): 0.205 | Average Log (10) Ratio: hexokinase 2 (rat liver, probe NM_012735, Rn.91375, oral gavage, experiments of Table 3): 0.300 | Average Log (10) Ratio: guanylate cyclase 1, soluble, beta 3 (rat liver, probe NM_012769, Rn.87228, oral gavage, experiments of Table 3): −0.120 | Average Log (10) Ratio: guanylate cyclase 1, soluble, beta 2 (rat liver, probe NM_012770, Rn.10933, oral gavage, experiments of Table 3): −0.120 | Average Log (10) Ratio: mitogen activated protein kinase 10 (rat liver, probe NM_012806, Rn.9911, oral gavage, experiments of Table 3): 0.229 | Average Log (10) Ratio: carnitine palmitoyltransferase 2 (rat liver, probe NM_012930, Rn.11389, oral gavage, experiments of Table 3): 0.030 | Average Log (10) Ratio: 3-hydroxy-3-methylglutaryl-Coenzyme A reductase (rat liver, probe NM_013134, Rn.9437, oral gavage, experiments of Table 3): 0.086 | Average Log (10) Ratio: transforming growth factor, beta 3 (rat liver, probe NM_013174, Rn.7018, oral gavage, experiments of Table 3): −0.086 | Average Log (10) Ratio: carnitine palmitoyltransferase 1b, muscle (rat liver, probe NM_013200, Rn.6028, oral gavage, experiments of Table 3): 0.125 | Average Log (10) Ratio: solute carrier family 10, member 2 (rat liver, probe NM_017222, Rn.85891, oral gavage, experiments of Table 3): −0.206 | Average Log (10) Ratio: mitogen-activated protein kinase 9 (rat liver, probe NM_017322, Rn.9910, oral gavage, experiments of Table 3): −0.209 | Average Log (10) Ratio: acyl-Coenzyme A oxidase 1, palmitoyl (rat liver, probe NM_017340, Rn.31796, oral gavage, experiments of Table 3): 0.165 | Average Log (10) Ratio: transforming growth factor, beta 1 (rat liver, probe NM_021578, Rn.40136, oral gavage, experiments of Table 3): −0.047 | Average Log (10) Ratio: protein kinase, AMP-activated, beta 2 non-catalytic subunit (rat liver, probe NM_022627, Rn.15423, oral gavage, experiments of Table 3): −0.432 | Average Log (10) Ratio: transforming growth factor, beta 2 (rat liver, probe NM_031131, Rn.24539, oral gavage, experiments of Table 3): −0.378 | Average Log (10) Ratio: carnitine palmitoyltransferase 1a, liver (rat liver, probe NM_031559, Rn.2856, oral gavage, experiments of Table 3): 0.341 | Average Log (10) Ratio: protein kinase, AMP-activated, beta 1 non-catalytic subunit (rat liver, probe NM_031976, Rn.3619, oral gavage, experiments of Table 3): −0.188 | Average Log (10) Ratio: ATP-binding cassette, sub-family D (ALD), member 1 (DBSS) (rat liver, probe NM_033352, Rn.177278, oral gavage, experiments of Table 3): 0.292 | Average Log (10) Ratio: insulin-like growth factor binding protein, acid labile subunit (rat liver, probe NM_053329, Rn.164865, oral gavage, experiments of Table 3): −0.263 | Average Log (10) Ratio: pyruvate dehydrogenase kinase, isoenzyme 4 (rat liver, probe NM_053551, Rn.30070, oral gavage, experiments of Table 3): −0.148 | Average Log (10) Ratio: phosphatidylinositol 3-kinase, C2 domain containing, gamma polypeptide (rat liver, probe NM_053923, Rn.169550, oral gavage, experiments of Table 3): −0.055 | Average Log (10) Ratio: pyruvate dehydrogenase E1 alpha 2 (rat liver, probe NM_053994, Rn.11126, oral gavage, experiments of Table 3): −0.171 | Average Log (10) Ratio: nuclear receptor subfamily 0, group B, member 2 (rat liver, probe NM_057133, Rn.10712, oral gavage, experiments of Table 3): 0.034 | Average Log (10) Ratio: hydroxyacyl-Coenzyme A dehydrogenase/3-ketoacyl-Coenzyme A thiolase/enoyl-Coenzyme A hydratase (trifunctional protein), beta subunit (rat liver, probe NM_133618, Rn.11253, oral gavage, experiments of Table 3): 0.182 | Average Log (10) Ratio: ELOVL family member 5, elongation of long chain fatty acids (yeast) (rat liver, probe NM_134382, Rn.4243, oral gavage, experiments of Table 3): −0.191 | Average Log (10) Ratio: Glycerol-3-phosphate dehydrate dehydrogenase (mtGPDH) mRNA, 3′UTR (rat liver, probe U08027, Rn.89705, oral gavage, experiments of Table 3): 0.026 | Average Log (10) Ratio: glycerol-3-phosphate acyltransferase, mitochondrial (rat liver, probe U36771, Rn.44456, oral gavage, experiments of Table 3): −0.239 | Average Log (10) Ratio: Cytochrome P450, family 2, subfamily b, polypeptide 2 (rat, in vivo, po): 0.275 | Average Log (10) Ratio: cytochrome P450, family 2, subfamily b, polypeptide 13 (rat, in vivo, po): −0.015 | Average Log (10) Ratio: cytochrome P450, family 3, subfamily a, polypeptide 13 (rat, in vivo, po): −0.242 | Average Log (10) Ratio: cytochrome P450, family 7, subfamily a, polypeptide 1 (rat, in vivo, po): 0.320 | Average Log (10) Ratio: cytochrome P450, family 8, subfamily b, polypeptide 1 (rat, in vivo, po): 0.351
